Measured values: PubChem BioAssay AID624167 (Sanford-Burnham Center for Chemical Genomics, 2012)
Activity calls are given as the source filed them.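 How the source made its calls: active means mean IC50 for reducing PEG3 promoter reporter signal at or below a set limit, with IC50 above the limit in both counter screens; inactive means the rest, including counter screen hits.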

How the values were obtained:
Assay in all cases: Peg3 promoter luciferase inhibitors, potency, dose response, cell-based, HeLa, CREF/GAPDH counter-screen panel (AID 624167)
PEG-3 [1] = biological target: PEG-3 (UniProt Q6IN02); conditions: HeLa PEG-Prom luciferase reporter, overnight, CREF/GAPDH counter-screens, mean of runs
PEG-3 [2] = conditions: HeLa PEG-Prom luciferase reporter, overnight, CREF/GAPDH counter-screens
Rat fibroblasts (CREF) = conditions: CREF/GAPDH counter-screens
[3] = run 1, dose range 1, individual replicate IC50 per panel
[4] = run 2, dose range 1, individual replicate IC50 per panel

Sequence of PEG-3 (UniProt Q6IN02) (Q6IN02 whole entry, looked up): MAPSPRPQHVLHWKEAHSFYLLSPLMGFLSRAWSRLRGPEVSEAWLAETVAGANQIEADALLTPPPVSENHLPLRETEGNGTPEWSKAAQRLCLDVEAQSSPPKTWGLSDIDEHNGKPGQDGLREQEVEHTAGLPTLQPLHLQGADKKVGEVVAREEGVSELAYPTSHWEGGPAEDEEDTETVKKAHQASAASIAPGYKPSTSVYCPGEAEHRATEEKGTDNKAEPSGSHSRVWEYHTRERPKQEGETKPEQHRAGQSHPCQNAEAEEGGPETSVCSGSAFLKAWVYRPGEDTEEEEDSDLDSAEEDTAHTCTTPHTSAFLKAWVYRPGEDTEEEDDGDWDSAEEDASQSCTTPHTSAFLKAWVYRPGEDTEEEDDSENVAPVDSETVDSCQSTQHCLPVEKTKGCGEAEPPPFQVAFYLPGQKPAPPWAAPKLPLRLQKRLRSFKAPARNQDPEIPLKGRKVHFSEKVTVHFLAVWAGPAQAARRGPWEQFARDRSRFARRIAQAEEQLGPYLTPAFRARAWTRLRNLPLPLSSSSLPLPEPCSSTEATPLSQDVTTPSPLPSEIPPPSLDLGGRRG

Structure (SMILES) | IC50 (PEG-3 [1]) | IC50 (PEG-3 [2]; [3]) [nM] | IC50 (PEG-3 [2]; [4]) [nM] | IC50 (Rat fibroblasts (CREF); mean of runs) [nM] | IC50 (Rat fibroblasts (CREF); [3]) [nM] | IC50 (Rat fibroblasts (CREF); [4]) [nM]
c1ccc(-c2nc(-c3ccccn3)no2)cc1 | inactive | 6250 | > 100000 | 2980 | 3180 | 2790
O=C(O)c1cccc(COc2ccc(CO)cc2Cl)c1 | 391 nM | 202 | 581 | 8350 | 8630 | 8080
S=C(NN=C(c1ccccc1)c1ccccn1)N(Cc1ccccn1)Cc1ccccn1 | 2190 nM | 2580 | 1800 | 6990 | 4590 | 9400
CCOC(=O)c1c(-n2c(C)cc(C=C3C(=O)NC(=S)NC3=O)c2C)sc2c1CCCC2 | 5690 nM | 5900 | 5470 | 11300 | 20300 | 2350
CCOC(=O)c1cnc(Nc2nc3ccccc3o2)nc1C | 1750 nM | 1170 | 2320 | 1320 | 1270 | 1370
Cc1ccc(-c2nc(-c3ccccn3)no2)cc1 | 571 nM | 479 | 663 | 480 | 288 | 672
Cc1cc(C(=O)CN2C(=O)c3ccccc3S2(=O)=O)c(C)n1-c1ccccc1 | 3360 nM | 2980 | 3750 | 7330 | 6790 | 7880
O=C(Nc1nc2cc3c(cc2s1)OCO3)C1=COCCO1 | 1970 nM | 1680 | 2250 | 2290 | 1920 | 2660
COc1ccc(S(=O)(=O)/N=C2\C=C(Nc3ccc(O)cc3)C(=O)c3ccccc32)cc1 | 2580 nM | 2500 | 2650 | 1630 | 1380 | 1880
COCCn1c(C)cc(C(=O)CSc2nnc(C)s2)c1C | 9400 nM | 5440 | 13400 | 8780 | 6790 | 10800
Cc1cc(C)c2nc(NNC(=O)c3ccc(S(=O)(=O)N4CC(C)CC(C)C4)cc3)sc2c1 (centres undefined) | 5170 nM | 7330 | 3010 | 8650 | 13900 | 3360
O=C1c2cccc3cc([N+](=O)[O-])cc(c23)C(=O)N1CCN1CCCC1 | 5570 nM | 6200 | 4940 | 4660 | 4170 | 5150
O=C(NCCc1ccccc1F)c1ccc2c(c1)OCCO2 | 881 nM | 1020 | 740 | 1180 | 1070 | 1300
Cc1ccc(-c2cn3cc(C)ccc3n2)cc1 | 722 nM | 729 | 715 | 1280 | 1010 | 1540
CN(C)c1ccc(/C=C2\SC(=O)N(CCc3nnc(N)s3)C2=O)cc1 | 2960 nM | 3340 | 2580 | 3180 | 1610 | 4750
CCC1(OC(=O)CN)C(=O)OCc2c1cc1n(c2=O)Cc2cc3ccccc3nc2-1 (centres undefined) | 3340 nM | 3800 | 2880 | 1380 | 1070 | 1690
CC(C)(C)c1ccc(C(=O)O/N=C(\N)c2ccccn2)cc1 | inactive | 367 | > 100000 | 9840 | 9330 | 10300
CC(=O)CSc1ccc(-c2nc3cc(C)c(C)cc3[nH]2)cn1 | 2020 nM | 2210 | 1840 | 2080 | 1790 | 2360
COc1ccc(-c2nc(-c3ccccn3)no2)cc1 | 552 nM | 765 | 338 | 529 | 472 | 586
CC(=O)n1cc(N(C(=O)CCl)c2ccc(C)cc2)c2ccccc21 | 9360 nM | 11300 | 7380 | 3960 | 5380 | 2530
Cc1ccc(C(=O)Nc2ncc([N+](=O)[O-])s2)cc1 | 2730 nM | 2010 | 3450 | 8850 | 5940 | 11800
COc1cccc(-c2sc3ccccc3c2-c2ccc(OCCN(C)C)cc2)c1 | 8800 nM | 10000 | 7600 | 14400 | 14600 | 14200
COc1cccc(NC(=O)c2nc(S(C)(=O)=O)ncc2Cl)c1 | 7740 nM | 8840 | 6640 | 9290 | 10200 | 8360
O=C1CCCCC1Sc1nnc(-c2ccc3c(c2)OCO3)o1 (centres undefined) | 1700 nM | 1690 | 1710 | 7830 | 8190 | 7460
